Data as given in patent US7517874B2 (priority 2007, dated 2009).
Like-named read-outs stand apart in the source and are kept apart here.

What was measured:
rat CB2 receptor (rCB2) = target: T1, rat CB2 receptor (rCB2) (Rattus norvegicus, UniProt Q9QZN9); test: cell-based; type: cell-based; conditions: agonist or inverse agonist at rCB2
T1 sequence (Q9QZN9 1-360): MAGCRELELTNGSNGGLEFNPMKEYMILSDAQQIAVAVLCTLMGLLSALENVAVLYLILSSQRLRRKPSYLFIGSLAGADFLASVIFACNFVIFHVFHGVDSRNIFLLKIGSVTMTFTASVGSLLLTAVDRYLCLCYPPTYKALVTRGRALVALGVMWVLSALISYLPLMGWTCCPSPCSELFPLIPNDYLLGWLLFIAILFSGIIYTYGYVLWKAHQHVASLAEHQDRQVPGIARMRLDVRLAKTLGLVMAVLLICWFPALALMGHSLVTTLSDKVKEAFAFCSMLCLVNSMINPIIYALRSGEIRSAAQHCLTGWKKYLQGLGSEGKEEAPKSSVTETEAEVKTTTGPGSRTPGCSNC
Method in brief: (§1)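 First, cells in IBMX-containing HEPES-buffered HBSS are raised to elevated cAMP with 2-8 μM NKH-477 for 30 min. Data are normalised to the forskolin and forskolin + 1 μM CP55,940 controls.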

[1] = target: human CB1 receptor (hCB1) (Homo sapiens, UniProt P21554); test: cell-based; type: cell-based; conditions: for +/− HCB1: agonist or inverse agonist at hCB1
Method in brief: as §1

[2] = groups >100 nM-10 μM and >10 μM, cAMP, CHO-K1 hCB1, read-out: EC50 HCB1

Sequence of human CB1 receptor (hCB1) (P21554 whole entry): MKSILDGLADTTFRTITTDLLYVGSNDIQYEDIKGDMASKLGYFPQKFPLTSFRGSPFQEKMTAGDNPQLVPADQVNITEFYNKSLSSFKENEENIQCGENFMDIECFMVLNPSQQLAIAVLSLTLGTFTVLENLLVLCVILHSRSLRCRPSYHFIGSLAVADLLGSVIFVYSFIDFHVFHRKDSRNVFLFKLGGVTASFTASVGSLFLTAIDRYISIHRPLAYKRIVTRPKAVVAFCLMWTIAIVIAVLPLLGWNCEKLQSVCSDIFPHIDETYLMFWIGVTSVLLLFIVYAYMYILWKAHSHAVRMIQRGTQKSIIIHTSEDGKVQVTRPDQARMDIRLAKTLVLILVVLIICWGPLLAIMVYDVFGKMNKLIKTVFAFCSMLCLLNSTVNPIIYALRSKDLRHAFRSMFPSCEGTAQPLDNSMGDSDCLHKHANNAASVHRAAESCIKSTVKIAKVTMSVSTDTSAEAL

Structure (SMILES): CNC(=O)[C@@H](NC(=O)c1nc(C2=CCCCCC2)n2c1CN(C)CC2)C(C)(C)C [Compound 272, (S,E)-3-cycloheptenyl-N-(3,3-dimethyl-1-(methylamino)-1-oxobutan-2-yl)-7-methyl-5,6,7,8-tetrahydroimidazo[1,5-a]pyrazine-1-carboxamide]
- +/− RCB2 (rat CB2 receptor (rCB2)): +
- +/− HCB1 [1]: +

Structure (SMILES): CNC(=O)[C@@H](NC(=O)c1nc(-c2ccccc2C(C)C)n2c1CN(C)CCC2)C(C)(C)C [Compound 403, (S)-N-(3,3-dimethyl-1-(methylamino)-1-oxobutan-2-yl)-3-(2-isopropylphenyl)-8-methyl-6,7,8,9-tetrahydro-5H-imidazo[1,5-a][1,4]diazepine-1-carboxamide]
- +/− RCB2 (rat CB2 receptor (rCB2)): +
- EC50 [1]: > 10000 nM

Structure (SMILES): CNC(=O)[C@@H](NC(=O)c1nc(-c2cccc(F)c2F)n2c1CN(C)CC2)C(C)(C)C [Compound 261, (S)-3-(2,3-difluorophenyl)-N-(3,3-dimethyl-1-(methylamino)-1-oxobutan-2-yl)-7-methyl-5,6,7,8-tetrahydroimidazo[1,5-a]pyrazine-1-carboxamide]
- +/− RCB2 (rat CB2 receptor (rCB2)): +
- EC50 [1]: > 10000 nM

Structure (SMILES): CN1CCn2c(-c3ccc(Cl)cc3F)nc(C(=O)Nc3ccc(S(N)(=O)=O)cc3)c2C1 [Compound 208, 3-(4-chloro-2-fluorophenyl)-7-methyl-N-(4-sulfamoylphenyl)-5,6,7,8-tetrahydroimidazo[1,5-a]pyrazine-1-carboxamide]
- +/− RCB2 (rat CB2 receptor (rCB2)): −
- EC50 [1]: > 10000 nM

Structure (SMILES): C=Cc1nc(C(=O)N[C@H](C(=O)NC)C(C)(C)C)c2n1CCN(C)C2 [Compound 266, (S)-N-(3,3-dimethyl-1-(methylamino)-1-oxobutan-2-yl)-7-methyl-3-vinyl-5,6,7,8-tetrahydroimidazo[1,5-a]pyrazine-1-carboxamide]
- +/− RCB2 (rat CB2 receptor (rCB2)): −
- EC50 [1]: > 10000 nM

Structure (SMILES): C=Cc1nc(C(=O)N[C@H](C(=O)NC)C(C)(C)C)c2n1CCCN(C)C2 [Compound 430, (S)-N-(3,3-dimethyl-1-(methylamino)-1-oxobutan-2-yl)-8-methyl-3-vinyl-6,7,8,9-tetrahydro-5H-imidazo[1,5-a][1,4]diazepine-1-carboxamide]
- +/− RCB2 (rat CB2 receptor (rCB2)): +
- EC50 [1]: > 10000 nM

Structure (SMILES): CC(C)CN1CCn2c(-c3ccccc3)nc(C(=O)N[C@@H](C)C(C)(C)C)c2C1 [Compound 53, (S)-N-(3,3-dimethylbutan-2-yl)-7-isobutyl-3-phenyl-5,6,7,8-tetrahydroimidazo[1,5-a]pyrazine-1-carboxamide]
- +/− RCB2 (rat CB2 receptor (rCB2)): −
- EC50 [1]: > 10000 nM

Structure (SMILES): CNC(=O)[C@@H](NC(=O)c1nc(-c2nccs2)n2c1CN(C)CC2)C(C)(C)C [Compound 297, (S)-N-(3,3-dimethyl-1-(methylamino)-1-oxobutan-2-yl)-7-methyl-3-(thiazol-2-yl)-5,6,7,8-tetrahydroimidazo[1,5-a]pyrazine-1-carboxamide]
- +/− RCB2 (rat CB2 receptor (rCB2)): +
- EC50 [1]: > 10000 nM

Structure (SMILES): CNC(=O)[C@@H](NC(=O)c1nc(C2CC2)n2c1CN(C)CCC2)C(C)(C)C [Compound 435, (S)-3-cyclopropyl-N-(3,3-dimethyl-1-(methylamino)-1-oxobutan-2-yl)-8-methyl-6,7,8,9-tetrahydro-5H-imidazo[1,5-a][1,4]diazepine-1-carboxamide]
- +/− RCB2 (rat CB2 receptor (rCB2)): +
- EC50 [1]: > 10000 nM

Structure (SMILES): CNC(=O)[C@@H](NC(=O)c1nc(-c2cccc(C(F)(F)F)c2)n2c1CNCC2)C(C)(C)C [Compound 3, (S)-N-(3,3-dimethyl-1-(methylamino)-1-oxobutan-2-yl)-3-(3-(trifluoromethyl)phenyl)-5,6,7,8-tetrahydroimidazo[1,5-a]pyrazine-1-carboxamide]
- +/− RCB2 (rat CB2 receptor (rCB2)): −
- EC50 [1]: > 10000 nM

Structure (SMILES): CNC(=O)[C@@H](NC(=O)c1nc(-c2ccc(C(F)(F)F)cc2F)n2c1CN(C)CCC2)C(C)(C)C [Compound 368, (S)-N-(3,3-dimethyl-1-(methylamino)-1-oxobutan-2-yl)-3-(2-fluoro-4-(trifluoromethyl)phenyl)-8-methyl-6,7,8,9-tetrahydro-5H-imidazo[1,5-a][1,4]diazepine-1-carboxamide]
- +/− RCB2 (rat CB2 receptor (rCB2)): +
- +/− HCB1 [1]: +

Structure (SMILES): CC(C)C[C@H](NC(=O)c1nc(-c2cc(Cl)c(F)cc2F)n2c1CN(C)CCC2)C(N)=O [Compound 571, (S)-N-(1-amino-4-methyl-1-oxopentan-2-yl)-3-(5-chloro-2,4-difluorophenyl)-8-methyl-6,7,8,9-tetrahydro-5H-imidazo[1,5-a][1,4]diazepine-1-carboxamide]
- +/− RCB2 (rat CB2 receptor (rCB2)): +
- +/− HCB1 [1]: +

Structure (SMILES): C[C@@H](NC(=O)c1nc(-c2ccccc2)n2c1CN(C(=O)C1CCOC1)CC2)C1CCCCC1 (stereo partly drawn) [Compound 139, N-((R)-1-cyclohexylethyl)-3-phenyl-7-(tetrahydrofuran-3-carbonyl)-5,6,7,8-tetrahydroimidazo[1,5-a]pyrazine-1-carboxamide]
- +/− RCB2 (rat CB2 receptor (rCB2)): −
- EC50 [1]: > 10000 nM

Structure (SMILES): CC(C)(C)OC(=O)N1CCn2c(-c3ccccc3)nc(C(=O)NCC3CCOCC3)c2C1 [Compound 38, tert-butyl 3-phenyl-1-((tetrahydro-2H-pyran-4-yl)methylcarbamoyl)-5,6-dihydroimidazo[1,5-a]pyrazine-7(8H)-carboxylate]
- +/− RCB2 (rat CB2 receptor (rCB2)): −
- EC50 [1, 2]: > 10000 nM

Structure (SMILES): CC12CCC(C1)C(C)(C)C2NC(=O)c1nc(-c2ccccc2)n2c1CN(C(=O)c1ccco1)CC2 (stereo not shown) [Compound 122, 7-(furan-2-carbonyl)-3-phenyl-N-(1,3,3-trimethylbicyclo[2.2.1]heptan-2-yl)-5,6,7,8-tetrahydroimidazo[1,5-a]pyrazine-1-carboxamide]
- +/− RCB2 (rat CB2 receptor (rCB2)): −
- EC50 [1, 2]: > 10000 nM

Structure (SMILES): CNC(=O)[C@@H](NC(=O)c1nc(-c2ccccc2)n2c1CN(S(=O)(=O)c1ccccc1)CC2)C(C)(C)C [Compound 96, (S)-N-(3,3-dimethyl-1-(methylamino)-1-oxobutan-2-yl)-3-phenyl-7-(phenylsulfonyl)-5,6,7,8-tetrahydroimidazo[1,5-a]pyrazine-1-carboxamide]
- +/− RCB2 (rat CB2 receptor (rCB2)): −
- EC50 [1]: > 10000 nM

Structure (SMILES): CNC(=O)[C@@H](NC(=O)c1nc(-c2cccc(C)c2)n2c1CNCC2)C(C)(C)C [Compound 8, (S)-N-(3,3-dimethyl-1-(methylamino)-1-oxobutan-2-yl)-3-m-tolyl-5,6,7,8-tetrahydroimidazo[1,5-a]pyrazine-1-carboxamide]
- +/− RCB2 (rat CB2 receptor (rCB2)): −
- EC50 [1]: > 10000 nM

Structure (SMILES): CNC(=O)[C@H](CC(C)(C)C)NC(=O)c1nc(-c2ccc(F)c(F)c2)n2c1CN(C)CCC2 [Compound 552, (S)-3-(3,4-diflurophenyl)-N-(4,4-dimethyl-1-(methylamino)-1-oxopentan-2-yl)-8-methyl-6,7,8,9-tetrahydro-5H-imidazo[1,5-a][1,4]diazepine-1-carboxamide]
- +/− RCB2 (rat CB2 receptor (rCB2)): +
- +/− HCB1 [1]: +

Structure (SMILES): C[C@@H](NC(=O)c1nc(-c2ccccc2)n2c1CN(CCO)CC2)C1CCCCC1 [Compound 140, (R)-N-(1-cyclohexylethyl)-7-(2-hydroxyethyl)-3-phenyl-5,6,7,8-tetrahydroimidazo[1,5-a]pyrazine-1-carboxamide]
- +/− RCB2 (rat CB2 receptor (rCB2)): −
- EC50 [1]: > 10000 nM

Structure (SMILES): CNC(=O)[C@@H](NC(=O)c1nc(-c2ccc(F)c(C)c2)n2c1CNCC2)C(C)(C)C [Compound 7, (S)-N-(3,3-dimethyl-1-(methylamino)-1-oxobutan-2-yl)-3-(4-fluoro-3-methylphenyl)-5,6,7,8-tetrahydroimidazo[1,5-a]pyrazine-1-carboxamide]
- +/− RCB2 (rat CB2 receptor (rCB2)): −
- EC50 [1]: > 10000 nM
